Measured values from patent US10906900B2, “Compounds for using in imaging and particularly for the diagnosis of neurodegenerative diseases” (CENTRE NATIONAL DE LA RECHERCHE SCIENTIFIQUE, priority 2016, dated 2021).

What was measured:
α-syn fibres = α-syn fibres (Homo sapiens (Human), UniProt P37840); assay: In vitro inhibition of ThT binding and determination of Ki (fluorescence), α-syn fibres; details: for α-syn selectivity according to analysis of Ki (Table 5): selective = good affinity and at least two times greater than for at least one of the two other proteins; for Ki: vs Thioflavin T 500 nM, α-syn fibres 200 nM, PBS pH7.4, 1 h RT, read-out: Ki αsyn
Experimental: (§1) To obtain fiber assembly, α-syn is incubated in Tris-HCl 50 mM pH7.5, KCl 150 mM at 37° C. under continuous agitation during 4 days. The lyophilized Aβ1-42 was dissolved in 1,1,1,3,3,3-Hexafluoro-2-propanol (HFIP) at 0.2 mg/mL and incubated for 24 h at 37° C. to obtain the complete solubilization. The HFIP is evaporated under nitrogen stream to obtain a dry product. To start the fiber assembly, the dry peptide is resuspended in PBS pH7.4, 10% (v/v) DMSO and incubated at 37° C. for 3 days without agitation.
(§2) Protein fibers are systematically observed by electron microscopy (Jeol 1400). The images are recorded with a CCD camera (Gatan Orius). Finally, the percentage of α-syn and Aβ1-42 aggregated into fibers is checked on the pellet after centrifugation at 40000×g for 20 min and determination of the concentration of soluble protein/peptide remaining in the supernatant.
(§3) The samples are incubated for 1 h at room temperature (RT) to reach equilibrium. […] From each curve, the IC50 value is measured using the following equation: Y=min+(max−min)/1+([…])^slope

Aβ1-42 fibres = Aβ1-42 fibres (Homo sapiens, UniProt P05067); assay: In vitro inhibition of ThT binding and determination of Ki (fluorescence), Aβ1-42 fibres; details: vs Thioflavin T 500 nM; Aβ1-42 fibres 500 nM; PBS pH7.4, 1 h RT; read-out: Ki Aβ
Experimental: as §1, §2, §3

α-syn fibers = α-syn fibers (Homo sapiens (Human), UniProt P37840); assay: In vitro direct determination of Kd and Bmax by fluorescence, α-syn fibers; assay type: binding; details: for αsyn Bmax1: density of binding sites; for αsyn Bmax1 / Kd: direct fluorescence, Scatchard analysis; for Kd: α-syn fibers 200 nM, read-out: αsyn Kd1; for αsyn Bmax1 (number of sites/monomer): in brackets in the Bmax cell; for α-syn selectivity according to analysis of Kd (Tables 6 and 7): selective = good affinity and at least two times greater than for at least one of the two other proteins
Experimental: as §1
(§4) Fresh solutions of each test compound (2.5 mM in DMSO) are diluted in PBS pH=7.4 at concentrations between 0.5 nM and 5 μM in the presence or absence of α-syn (200 nM), Aβ1-42 (500 nM) or Tau (200 nM) fibers in a final 2 mL volume. After 1 h of incubation at RT, the binding of each compound to α-syn, A131-42 or Tau fibers is measured by fluorescence using the spectral changes of the compounds during their binding to the fibers, using the appropriate excitation/emission wavelengths (those giving the highest fluorescence variation during binding to the fibres). For each concentration of compound added to the fibres, the bound and free fractions are measured by fluorescence according to the following equation: Fm=FBB+FF×(T−B)
(§5) The value of FF is determined by measuring the fluorescence of known concentrations of compounds in the absence of fibres. The FB value is determined by measuring the maximum fluorescence of known concentrations of compounds in the presence of saturated concentrations of α-syn, Aβ1-42, or Tau fibers.
(§6) The values of B thus determined versus the concentrations of the free fractions (T-B) are analyzed according to the Michaelis-Menten equation. The affinity (Kd) and density of binding sites within the fibers of α-syn, Aβ1-42 or Tau (Bmax) are determined by Scatchard analysis, which also makes it possible to highlight multiple site classes.

Tau fibres = Tau fibres (Homo sapiens (Human), UniProt P10636); assay: In vitro inhibition of ThT binding and determination of Ki (fluorescence), Tau fibres; details: for Tau selectivity according to analysis of Ki (Table 5): selective = good affinity and at least two times greater than for at least one of the two other proteins
Experimental: (§7) Tau protein in PBS buffer containing 1 mM DTT is assembled into fiber in the presence of one twelfth of a molar equivalent of heparin at 37° C. under stirring.
as §3

Aβ1-42 fibers = Aβ1-42 fibers (Homo sapiens, UniProt P05067); assay: In vitro direct determination of Kd and Bmax by fluorescence, Aβ1-42 fibers; assay type: binding; details: for Aβ Bmax1: density of binding sites; for Aβ Bmax1 / Kd: direct fluorescence, Scatchard analysis; for Kd: Aβ1-42 fibers 500 nM, read-out: Aβ Kd1; for Aβ Bmax1 (number of sites/monomer): in brackets in the Bmax cell
Experimental: as §1, §4, §5, §6

Tau fibers = Tau fibers (Homo sapiens (Human), UniProt P10636); assay: In vitro direct determination of Kd and Bmax by fluorescence, Tau fibers; assay type: binding; details: for Tau Bmax1: density of binding sites; for Tau Bmax1 / Kd: direct fluorescence, Scatchard analysis; for Kd: Tau fibers 200 nM, read-out: Tau Kd1; for Tau Bmax1 (number of sites/monomer): in brackets in the Bmax cell
Experimental: Human Tau protein (isoform h2N4RTau) is expressed in the vector pET11d in E. Coli (strain BL21 (DE3), (Stratagene, La Jolla, Calif.)) and purified according to the described method (Barghorn S, Biernat J, Mandelkow E. (2005) Methods Mol Biol. 299:35-51). The Tau purified concentration is determined by measuring the absorbance at 280 nm using a molar extinction coefficient of 7450 M^−1 cm^−1.
as §7, §4
Where Fm is the fluorescence measured in the presence of fibers at a concentration T of the compound added to the fibers, FB is the specific fluorescence of the bound compound, FF is the specific fluorescence of the free compound, and B is the concentration of the fiber bound compound at a given concentration T (Bell, J. E., “Fluorescence; Solution Studies”, Spectrometry in Biochemistry, vol. I, Bell, J. E., ed., CRC Press, Inc., Boca Raton, Fla., pp. 155-194 (1981)).
as §5
Thus, at each point, the concentration of bound compound B is determined according to the following equation: B=(Fm−FF×T)/(FB−FF)
as §6

Chain of Aβ1-42 fibers (P05067 672-713 limits assumed): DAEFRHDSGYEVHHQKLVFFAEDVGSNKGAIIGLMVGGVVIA
Chain of Aβ1-42 fibres (P05067 672-713 limits assumed): as above
Chain of Tau fibers (P10636 other isoform, or with tags, fused parts or gaps): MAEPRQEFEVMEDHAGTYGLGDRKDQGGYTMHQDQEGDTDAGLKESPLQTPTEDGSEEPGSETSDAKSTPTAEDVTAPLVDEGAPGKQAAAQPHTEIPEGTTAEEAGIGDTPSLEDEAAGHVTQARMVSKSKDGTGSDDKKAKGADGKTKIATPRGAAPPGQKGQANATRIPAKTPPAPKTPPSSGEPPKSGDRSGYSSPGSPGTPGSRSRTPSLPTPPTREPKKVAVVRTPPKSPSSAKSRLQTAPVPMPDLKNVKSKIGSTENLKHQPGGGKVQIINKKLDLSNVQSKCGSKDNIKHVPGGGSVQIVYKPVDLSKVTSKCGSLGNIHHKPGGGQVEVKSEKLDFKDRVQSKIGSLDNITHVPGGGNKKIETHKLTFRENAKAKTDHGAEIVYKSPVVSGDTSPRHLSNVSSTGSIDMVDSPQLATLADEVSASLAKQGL
Chain of Tau fibres (P10636 other isoform, or with tags, fused parts or gaps): as above

Row | SMILES | α-syn selectivity according to analysis of Ki (Table 5) (α-syn fibres) | Ki (α-syn fibres) | Ki (Aβ1-42 fibres) | αsyn Bmax1 (α-syn fibers) | Kd (α-syn fibers) | αsyn Bmax1 (number of sites/monomer) (α-syn fibers) | α-syn selectivity according to analysis of Kd (Tables 6 and 7) (α-syn fibers) | Ki (Tau fibres) | Tau selectivity according to analysis of Ki (Table 5) (Tau fibres) | Aβ Bmax1 (Aβ1-42 fibers) | Kd (Aβ1-42 fibers) | Aβ Bmax1 (number of sites/monomer) (Aβ1-42 fibers) | Tau Bmax1 (Tau fibers) | Kd (Tau fibers) | Tau Bmax1 (number of sites/monomer) (Tau fibers) | Tau selectivity according to analysis of Kd (Tables 6 and 7) (Tau fibers; selective = good affinity and at least two times greater than for at least one of the two other proteins)
1 | CN(C)c1ccc(C#Cc2cc3ccncc3[nH]2)cc1 [Compound 22b, 4-((1H-Pyrrolo[2,3-c]pyridin-2-yl)ethynyl)-N,N-dimethylaniline] | selective | 28.7 ± 8 nM | 91.5 ± 11 nM | 80.0 ± 42 nmol/μmol prot | 1.4 ± 1 nM | 1/15 | selective | 8.4 ± 2 nM | selective | 2.3 ± 0.8 nmol/μmol prot | 5.2 ± 3 nM | 1/400 | 37.1 ± 10 nmol/μmol prot | 0.49 ± 0.2 nM | 1/30 | selective
2 | CN(C)c1ccc(C#Cc2cc3ccc(-c4ccc(F)nc4)nc3[nH]2)cc1 [Compound 25c, 4-((6-(6-Fluoropyridin-3-yl)-1H-pyrrolo[2,3-b]pyridin-2-yl)ethynyl)-N,N-dimethylaniline] | – | – | – | – | – | – | – | – | – | 11.0 ± 2 nmol/μmol prot | 3.1 ± 1 nM | 1/90 | – | – | – | –
3 | CN(C)c1ccc(C#Cc2cc3ccc(Cl)nc3[nH]2)cc1 [Compound 22e, 4-((6-Chloro-1H-pyrrolo[2,3-b]pyridin-2-yl)ethynyl)-N,N-dimethylaniline] | selective | 49.9 ± 12 nM | 909 ± 143 nM | – | – | – | – | 25.1 ± 8 nM | selective | – | – | – | – | – | – | –
4 | CN(C)c1ccc(C#Cc2cc3c(F)ccnc3[nH]2)cc1 [Compound 22h, 4-((4-Fluoro-1H-pyrrolo[2,3-b]pyridin-2-yl)ethynyl)-N,N-dimethylaniline] | – | – | 244 ± 84 nM | – | – | – | – | – | – | – | – | – | – | – | – | –
5 | CN(C)c1ccc(C#Cc2cc3ccc(F)nc3[nH]2)cc1 [Compound 22f, 4-((6-Fluoro-1H-pyrrolo[2,3-b]pyridin-2-yl)ethynyl)-N,N-dimethylaniline] | – | – | 349 ± 256 nM | – | – | – | – | – | – | 21.6 ± 3 nmol/μmol prot | 16.8 ± 2 nM | 1/50 | – | – | – | –
6 | CN(C)c1ccc(C#Cc2cc3cnccc3[nH]2)cc1 [Compound 22d, 4-((1H-Pyrrolo[3,2-c]pyridin-2-yl)ethynyl)-N,N-dimethylaniline] | – | – | – | 6.0 ± 1 nmol/μmol prot | 1 ± 0.5 nM | 1/170 | selective | – | – | 2.4 ± 0.8 nmol/μmol prot | 3.6 ± 2 nM | 1/400 | 12.5 ± 5 nmol/μmol prot | 2.4 ± 0.9 nM | 1/80 | –
7 | CN(C)c1ccc(C#Cc2cc3ccc(-c4cccs4)nc3[nH]2)cc1 [Compound 25a, N,N-Dimethyl-4-((6-(thiophen-2-yl)-1H-pyrrol[2,3-b]pyridin-2-yl)ethynyl)aniline] | – | – | – | 53.5 ± 10 nmol/μmol prot | 0.49 ± 0.2 nM | 1/20 | selective | – | – | 5.8 ± 0.32 nmol/μmol prot | 4.9 ± 0.6 nM | 1/170 | 70.4 ± 4 nmol/μmol prot | 1.67 ± 0.5 nM | 1/10 | –
8 | CN(C)c1ccc(C#Cc2cc3ccc(-c4ccsc4)nc3[nH]2)cc1 [Compound 25b, N,N-Dimethyl-4-((6-(thiophen-3-yl)-1H-pyrrol[2,3-b]pyridin-2-yl)ethynyl)aniline] | – | – | – | – | – | – | – | – | – | 11.0 ± 1 nmol/μmol prot | 4.27 ± 0.6 nM | 1/90 | – | – | – | –
9 | CN(C)c1ccc(C#Cc2cc3cc(F)cnc3[nH]2)cc1 [Compound 22g, 4-((5-Fluoro-1H-pyrrolo[2,3-b]pyridin-2-yl)ethynyl)-N,N-dimethylaniline] | – | – | 318 ± 95 nM | – | – | – | – | – | – | – | – | – | – | – | – | –
